Assay results from patent publication US20250388543A1, “HETEROARYL COMPOUNDS FOR THE TREATMENT OF PAIN” (VERTEX PHARMACEUTICALS INCORPORATED, priority 2022, published 2025).

Molecular target: human NaV 1.8 (Homo sapiens, UniProt Q9Y5Y9)
Assay: E-VIPR Assay Detecting and Measuring NaV Inhibition Properties
Format: cell-based
Conditions: HEK cells expressing a truncated form of human NaV 1.8 with full channel activity; electrical stimulation, membrane-potential FRET dyes; 30 minutes compound incubation; read-out: measured IC50 value in the E-VIPR Assay
Excerpt: E-VIPR Assay Detecting and Measuring NaV Inhibition Properties
Sodium ion channels are voltage-dependent proteins that can be activated by inducing membrane voltage changes by applying electric fields. The electrical stimulation instrument and methods of use, referred to as E-VIPR, are described in International Publication No. WO 2002/008748 A3 and C.-J. Huang et al. Characterization of voltage-gated sodium channel blockers by electrical stimulation and fluorescence detection of membrane potential, 24 Nature Biotech. 439-46 (2006), both of which are incorporated by reference in their entirety. The instrument comprises a microtiter plate handler, an optical system for exciting the coumarin dye while simultaneously recording the coumarin and oxonol emissions, a waveform generator, a current- or voltage-controlled amplifier, and parallel electrode pairs that are inserted into assay plate wells. Under integrated computer control, this instrument passes user-programmed electrical stimulus protocols to cells within the wells of the microtiter plate.
16-20 hours prior to running the assay on E-VIPR, HEK cells expressing a truncated form of human NaV 1.8 with full channel activity were seeded into microtiter 384-well plates, pre-coated with matrigel, at a density of 25,000 cells per well. 2.5-5% KIR2.1 BacMam virus was added to the final cell suspension before seeding into cell plates. HEK cells were grown in Dulbecco's Modified Eagle's Medium (DMEM) supplemented with 10% FBS (Fetal Bovine Serum, qualified; Sigma #F4135), 1% NEAA (Non-Essential Amino Acids, Gibco #11140), 1% HEPES (Gibco #15630), 1% Pen-Strep (Penicillin-Streptomycin; Gibco #15140) and 5 μg/ml Blasticidin (Gibco #R210-01). Cells were expanded in 5-layer CellSTACK culture chambers or cell culture flasks with vented caps, with 90-95% humidity and 5% CO2.
Reagents and Stock Solutions:
100 mg/mL Pluronic F-127 (Sigma #P2443), in dry DMSO
Compound Plates: Corning 384-well Polypropylene Round Bottom #3656
Cell Plates: 384-well tissue culture treated plates (Greiner #781091-2B)
2.5-5% KIR 2.1 Bacmam virus (produced in-house), prepared as described in Section 3.3 of J. A. Fornwald et al., Gene Expression in Mammalian Cells Using BacMam, a Modified Baculovirus System, 1350 Methods in Molecular Biology 95-116 (2016), the entire contents of which are incorporated by reference. The concentration used can be dependent on viral titer of each batch.
5 mM DiSBAC6(3), a voltage sensitive oxonol acceptor (CAS number 169211-44-3; 5-[3-(1,3-dihexylhexahydro-4,6-dioxo-2-thioxo-5-pyrimidinyl)-2-propen-1-ylidene]-1,3-dihexyldihydro-2-thioxo-4,6(1H,5H)-pyrimidinedione), in dry DMSO. The preparation of DiSBAC6(3) is analogous to that of DiSBAC4(3) as described in Voltage Sensing by Fluorescence Resonance Energy Transfer in Single Cells, Gonzalez, J. E. and Tsien, R. Y. (1995) Biophys. J. 69, 1272-1280.
5 mM CC2-DMPE, a commercially available membrane-bound coumarin phospholipid FRET donor (ThermoFisher Scientific catalog number K1017, CAS number 393782-57-5; tetradecanoic acid, 1,1′-[(1R)-1-[8-(6-chloro-7-hydroxy-2-oxo-2H-1-benzopyran-3-yl)-3-hydroxy-3-oxido-8-oxo-2,4-dioxa-7-aza-3-phosphaoct-1-yl]-1,2-ethanediyl]ester) was prepared in dry DMSO. See also, Improved indicators of cell membrane potential that use fluorescence resonance energy transfer, Gonzalez, J. E. and Tsien, R. Y. (1997) Chem. Biol. 4, 269-277.
Voltage Assay Background Suppression Compound (VABSC-1) is prepared in H2O (89-363 mM, range used to maintain solubility)
Human Serum (HS, Millipore #S1P1-01KL, or Sigma SLBR5469V and SLBR5470V as a 50%/50% mixture, for 25% assay final concentration)
Sodium Chloride 160 mM (9.35 g/L), Potassium Chloride, 4.5 mM (0.335 g/L), Glucose 10 mM (1.8 g/L), Magnesium Chloride (Anhydrous) 1 mM (0.095 g/L), Calcium Chloride 2 mM (0.222 g/L), HEPES 10 mM (2.38 g/L) in water. […]

Sequence of human NaV 1.8 (Q9Y5Y9 126-1722 limits assumed): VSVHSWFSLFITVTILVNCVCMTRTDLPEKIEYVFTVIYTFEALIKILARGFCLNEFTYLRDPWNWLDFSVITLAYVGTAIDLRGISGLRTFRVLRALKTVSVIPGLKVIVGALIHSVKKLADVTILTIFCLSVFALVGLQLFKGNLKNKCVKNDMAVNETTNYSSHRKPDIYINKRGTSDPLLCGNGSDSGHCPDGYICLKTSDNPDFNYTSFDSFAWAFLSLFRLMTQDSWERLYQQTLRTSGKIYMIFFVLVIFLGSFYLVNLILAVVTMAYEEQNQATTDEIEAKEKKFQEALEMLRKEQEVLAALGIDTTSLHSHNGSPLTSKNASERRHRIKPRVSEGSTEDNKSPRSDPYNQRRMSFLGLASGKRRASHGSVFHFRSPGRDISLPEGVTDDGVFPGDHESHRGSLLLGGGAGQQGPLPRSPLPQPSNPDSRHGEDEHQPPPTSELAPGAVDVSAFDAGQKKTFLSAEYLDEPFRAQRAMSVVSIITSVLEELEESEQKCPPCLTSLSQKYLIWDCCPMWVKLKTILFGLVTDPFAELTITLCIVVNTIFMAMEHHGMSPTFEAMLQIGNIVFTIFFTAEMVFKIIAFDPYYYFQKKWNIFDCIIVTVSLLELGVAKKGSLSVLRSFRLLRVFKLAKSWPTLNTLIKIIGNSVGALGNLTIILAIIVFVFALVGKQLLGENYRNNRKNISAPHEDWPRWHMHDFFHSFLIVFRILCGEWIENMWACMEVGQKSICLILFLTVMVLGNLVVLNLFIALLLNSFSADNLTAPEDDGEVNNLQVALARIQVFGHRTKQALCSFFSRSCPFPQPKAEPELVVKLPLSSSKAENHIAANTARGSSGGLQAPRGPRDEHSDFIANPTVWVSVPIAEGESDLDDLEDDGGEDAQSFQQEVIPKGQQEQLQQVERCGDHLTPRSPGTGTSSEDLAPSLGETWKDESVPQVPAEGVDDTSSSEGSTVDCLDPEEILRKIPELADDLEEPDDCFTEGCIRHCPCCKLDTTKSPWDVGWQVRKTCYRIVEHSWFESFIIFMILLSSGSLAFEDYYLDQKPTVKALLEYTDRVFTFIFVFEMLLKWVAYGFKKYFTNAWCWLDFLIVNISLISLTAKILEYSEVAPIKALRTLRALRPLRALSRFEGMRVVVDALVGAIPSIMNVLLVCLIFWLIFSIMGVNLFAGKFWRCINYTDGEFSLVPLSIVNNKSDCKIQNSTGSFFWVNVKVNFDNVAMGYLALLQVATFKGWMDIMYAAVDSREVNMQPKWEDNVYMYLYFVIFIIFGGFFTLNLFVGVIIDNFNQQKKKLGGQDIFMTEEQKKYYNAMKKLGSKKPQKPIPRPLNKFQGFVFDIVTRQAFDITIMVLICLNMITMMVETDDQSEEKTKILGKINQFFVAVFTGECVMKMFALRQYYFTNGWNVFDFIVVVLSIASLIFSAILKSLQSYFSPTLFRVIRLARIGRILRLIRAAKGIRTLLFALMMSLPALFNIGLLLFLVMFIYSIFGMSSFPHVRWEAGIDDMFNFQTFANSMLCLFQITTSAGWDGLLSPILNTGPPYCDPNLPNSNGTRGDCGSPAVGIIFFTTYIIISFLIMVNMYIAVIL

First: CO[C@@H]1CN(c2nc3ccccc3cc2-c2cc(=O)cc(C)[nH]2)C[C@@H]1C [Compound 253, 2-[2-[(3S,4S)-3-methoxy-4-methyl-pyrrolidin-1-yl]-3-quinolyl]-6-methyl-1H-pyridin-4-one]
Second: Cc1cnc(N2CCCC(F)(F)CC2)c(-c2cc(=O)cc(C)[nH]2)c1 [Compound 320, 2-[2-(4,4-difluoroazepan-1-yl)-5-methyl-3-pyridyl]-6-methyl-1H-pyridin-4-one]
The IC50 of the first is lower: 500 to 2000 nM for the first, 2000 to 5000 nM for the second. The first is the more potent here.

First: COc1cc(F)ccc1Oc1cc(C(C)(C)C)cc(C)c1-c1cc(=O)cc(C(O)CO)[nH]1 (stereo not drawn) [Compound 274, 2-[4-tert-butyl-2-(4-fluoro-2-methoxy-phenoxy)-6-methyl-phenyl]-6-(1,2-dihydroxyethyl)-1H-pyridin-4-one]
Second: COc1cc(F)ccc1Oc1cc(C(C)(C)C)cc(C)c1-c1cc(=O)c(C(=O)N(C)C)c(C)[nH]1 [Compound 289, 6-[4-tert-butyl-2-(4-fluoro-2-methoxy-phenoxy)-6-methyl-phenyl]-N,N,2-trimethyl-4-oxo-1H-pyridine-3-carboxamide]
The IC50 of the first is higher: no less than 5000 nM for the first, 500 to 2000 nM for the second.

First: COc1c(Oc2cnc(C(F)(F)F)cc2-c2[nH]c(C)c(C)c(=O)c2C(=O)O)ccc(F)c1F [Compound 280, 2-[5-(3,4-difluoro-2-methoxy-phenoxy)-2-(trifluoromethyl)-4-pyridyl]-5,6-dimethyl-4-oxo-1H-pyridine-3-carboxylic acid]
Second: COC(=O)c1c(-c2cc(C(F)(F)F)ncc2N2CCCC(F)(F)CC2)[nH]c(C)c(C)c1=O [Compound 297, methyl 2-[5-(4,4-difluoroazepan-1-yl)-2-(trifluoromethyl)-4-pyridyl]-5,6-dimethyl-4-oxo-1H-pyridine-3-carboxylate]
The IC50 of the first is lower: 500 to 2000 nM for the first, 2000 to 5000 nM for the second. The first is the more potent here.

First: Cc1cc(-c2[nH]c(C)c(C)c(=O)c2C(=O)O)c(N2CCCC(F)(F)CC2)nc1C(F)(F)F [Compound 284, 2-[2-(4,4-difluoroazepan-1-yl)-5-methyl-6-(trifluoromethyl)-3-pyridyl]-5,6-dimethyl-4-oxo-1H-pyridine-3-carboxylic acid]
Second: Cc1cc(=O)cc(-c2c(C(F)(F)F)ccnc2N2CCCC(F)(F)CC2)[nH]1 [Compound 318, 2-[2-(4,4-difluoroazepan-1-yl)-4-(trifluoromethyl)-3-pyridyl]-6-methyl-1H-pyridin-4-one]
The IC50 of the first is lower: 500 to 2000 nM for the first, no less than 5000 nM for the second.

First: Cc1c(Oc2ncc(C(F)(F)F)c(C)c2-c2cc(=O)c(C(N)=O)c[nH]2)ccc(F)c1F [Compound 310, 6-[2-(3,4-difluoro-2-methyl-phenoxy)-4-methyl-5-(trifluoromethyl)-3-pyridyl]-4-oxo-1H-pyridine-3-carboxamide]
Second: Cc1cc(=O)cc(-c2c(C(F)(F)F)ccnc2N2CCC(F)(F)CC2)[nH]1 [Compound 319, 2-[2-(4,4-difluoro-1-piperidyl)-4-(trifluoromethyl)-3-pyridyl]-6-methyl-1H-pyridin-4-one]
The IC50 of the first is lower: 500 to 2000 nM for the first, no less than 5000 nM for the second.

First: Cc1cc(=O)cc(-c2cc(C(F)(F)F)ncc2C2CCC(C(F)(F)F)CC2)[nH]1 (stereo not drawn) [Compound 321, 2-methyl-6-[2-(trifluoromethyl)-5-[4-(trifluoromethyl)cyclohexyl]-4-pyridyl]-1H-pyridin-4-one]
Second: Cc1cc(=O)cc(-c2ccc(C(F)(F)F)cc2C2CCC(F)(F)CC2)[nH]1 [Compound 325, 2-[2-(4,4-difluorocyclohexyl)-4-(trifluoromethyl)phenyl]-6-methyl-1H-pyridin-4-one]
The IC50 of the first is higher: no less than 5000 nM for the first, 500 to 2000 nM for the second. The second is the more potent here.

`Cc1cc(=O)cc(-c2cc(C(F)(F)F)ncc2C2CCC(C(F)(F)F)CC2)[nH]1` (stereo not drawn) [Compound 322, 2-methyl-6-[2-(trifluoromethyl)-5-[4-(trifluoromethyl)cyclohexyl]-4-pyridyl]-1H-pyridin-4-one] and `Cc1cc(=O)cc(-c2ccc(C(F)(F)F)cc2C2(O)CCC(F)(F)CC2)[nH]1` [Compound 323, 2-[2-(4,4-difluoro-1-hydroxy-cyclohexyl)-4-(trifluoromethyl)phenyl]-6-methyl-1H-pyridin-4-one] cannot be ordered by IC50: 2000 to 5000 nM for the first, no less than 5000 nM for the second.

`Cc1cc(=O)cc(-c2ccc(C(F)(F)F)cc2C2=CCC(F)(F)CC2)[nH]1` [Compound 324, 2-[2-(4,4-difluorocyclohexen-1-yl)-4-(trifluoromethyl)phenyl]-6-methyl-1H-pyridin-4-one] gave an IC50 of no less than 5000 nM.
